Consider seven molecules from patent US7739055B2, “Methods and systems for generating and evaluating peptides” (priority 2005, dated 2010).

Converted amounts (≈) assume the structure as drawn. Where two headings read alike, the source gives them in different places. Where a SMILES comes first, the peptide text is derived from it.

In data set [1] the test system is Escherichia coli.
Data set [2] relates to B. cereus.
In data set [3] the test system is Smith Diffuse strain of Staphylococcus aureus.
The test system of data set [4] is Sterne strain of Bacillus anthracis.
The subject of data set [5] is human red blood cells.
Setting [6] is: first concentration that prohibits growth by OD at 24 hours, Table 1.

For `CC(C)C[C@H](NC(=O)[C@H](CCCCN)NC(=O)[C@H](Cc1ccccc1)NC(=O)[C@@H](NC(=O)[C@@H](NC(=O)CNC(=O)[C@H](CC(C)C)NC(=O)[C@@H](N)Cc1ccccc1)C(C)C)C(C)C)C(=O)N[C@@H](C)C(=O)N[C@@H](CO)C(=O)N[C@@H](CCCCN)C(=O)N[C@H](C(=O)N[C@@H](Cc1ccccc1)C(=O)N1CCC[C@H]1C(=O)N[C@@H](C)C(=O)N[C@H](C(=O)N[C@@H](Cc1ccccc1)C(=O)NCC(=O)N[C@@H](CCCCN)C(=O)N[C@H](C(=O)O)C(C)C)C(C)C)C(C)C` [Peptide 28] (H-FLGVVFKLASKVFPAVFGKV-OH; N-terminus and C-terminus assumed), the “MIC E. coli” value in data set [1] (24 h) turned out to be 64 µg/mL (≈ 29.7 µM). In data set [2] (24 h), the “MIC B. cereus” value came to 16 µg/mL (≈ 7.43 µM). The “MIC S. aureus” value in data set [3] (Smith Diffuse strain of) came out at 8 µg/mL (≈ 3.71 µM). The “MIC B. anthracis” value in data set [4] was 16 µg/mL (≈ 7.43 µM). Further, the “HC50, hemolytic concentration at which the peptides lyse 50% of human red blood cells” value in data set [5] is 42 µg/mL.

With `CC[C@H](C)[C@H](NC(=O)[C@H](CC(C)C)NC(=O)[C@H](C)NC(=O)[C@@H]1CCCN1C(=O)[C@H](Cc1ccccc1)NC(=O)[C@@H](NC(=O)[C@H](CCCCN)NC(=O)[C@H](CO)NC(=O)[C@H](C)NC(=O)[C@@H](NC(=O)[C@H](CCCNC(=N)N)NC(=O)[C@H](Cc1ccccc1)NC(=O)[C@H](CC(C)C)NC(=O)[C@@H](N)Cc1ccccc1)C(C)C)C(C)C)C(=O)NCC(=O)N[C@@H](CCCCN)C(=O)N[C@@H](Cc1ccccc1)C(=O)N[C@@H](CCCCN)C(=O)N[C@@H](CCCCN)C(=O)N[C@@H](CCCCN)C(=O)O` [Peptide 51] (H-FLFRVASKVFPALIGKFKKK-OH; N-terminus and C-terminus assumed), in data set [1] (24 h), the “MIC E. coli” value was 64 µg/mL (≈ 27.5 µM). The “MIC B. cereus” value in data set [2] (24 h) stood at 16 µg/mL (≈ 6.88 µM). Further, the “MIC S. aureus” value in data set [3] (Smith Diffuse strain of) was 16 µg/mL (≈ 6.88 µM). For the same molecule, the “MIC B. anthracis” value in data set [4] turned out to be 16 µg/mL (≈ 6.88 µM). The “HC50, hemolytic concentration at which the peptides lyse 50% of human red blood cells” value in data set [5] was “greater than 512 μg/ml”.

For ASPTVFRSSVFLSLFVVAKK [Shuffled 43], the “MIC E. coli” value in data set [1] (setting [6]) is reported as “+ (MIC greater than 256 ug/mL)”. In addition, the “MIC B. cereus” value in data set [2] (setting [6]) was “+ (MIC greater than 256 ug/mL)”. For the same molecule, the “MIC S. aureus” value in data set [3] (Smith Diffuse strain, Table 1) is “+ (MIC greater than 256 ug/mL)”. Further, in data set [4], the “MIC B. anthracis” value is “+ (key: +: MIC greater than 256 ug/mL; ++: MIC greater than 128 ug/mL, not sufficiently soluble to test as 256 ug/mL)”.

Take GVSVAGAKKVKVLFVFPFLF [Shuffled 28]: the “MIC E. coli” value in data set [1] (setting [6]) is given as “+ (MIC greater than 256 ug/mL)”. Also, the “MIC B. cereus” value in data set [2] (setting [6]) is listed as “+ (MIC greater than 256 ug/mL)”. For the same molecule, the “MIC S. aureus” value in data set [3] (Smith Diffuse strain, Table 1) is given as “+ (MIC greater than 256 ug/mL)”. In addition, the “MIC B. anthracis” value in data set [4] is given as “+ (key: +: MIC greater than 256 ug/mL; ++: MIC greater than 128 ug/mL, not sufficiently soluble to test as 256 ug/mL)”.

For KVFIATLVVSSFLLAKPPRV [Shuffled 35], the “MIC E. coli” value in data set [1] (setting [6]) was “+ (MIC greater than 256 ug/mL)”. For the same molecule, the “MIC B. cereus” value in data set [2] (setting [6]) is listed as “+ (MIC greater than 256 ug/mL)”. Moreover, the “MIC S. aureus” value in data set [3] (Smith Diffuse strain, Table 1) was “+ (MIC greater than 256 ug/mL)”. Also, the “MIC B. anthracis” value in data set [4] is on record as “+ (key: +: MIC greater than 256 ug/mL; ++: MIC greater than 128 ug/mL, not sufficiently soluble to test as 256 ug/mL)”.

In the case of SVPSVGAVLFFKRAAVMKLI [Shuffled 22], the “MIC E. coli” value in data set [1] (setting [6]) was “+ (MIC greater than 256 ug/mL)”. Besides, the “MIC B. cereus” value in data set [2] (setting [6]) is “+ (MIC greater than 256 ug/mL)”. In addition, the “MIC S. aureus” value in data set [3] (Smith Diffuse strain, Table 1) was “+ (MIC greater than 256 ug/mL)”. The “MIC B. anthracis” value in data set [4] is “+ (key: +: MIC greater than 256 ug/mL; ++: MIC greater than 128 ug/mL, not sufficiently soluble to test as 256 ug/mL)”.

For the molecule THIHMNARLLIRSPFTDPQL [Peptide 10], in data set [1] (setting [6]), the “MIC E. coli” value was “+ (MIC greater than 256 ug/mL)”. The “MIC B. cereus” value in data set [2] is “+ (key: +: MIC greater than 256 ug/mL; ++: MIC greater than 128 ug/mL, not sufficiently soluble to test as 256 ug/mL)”. Also, the “MIC S. aureus” value in data set [3] is given as “+ (key: +: MIC greater than 256 ug/mL; ++: MIC greater than 128 ug/mL, not sufficiently soluble to test as 256 ug/mL)”. In addition, the “MIC B. anthracis” value in data set [4] is listed as “+ (key: +: MIC greater than 256 ug/mL; ++: MIC greater than 128 ug/mL, not sufficiently soluble to test as 256 ug/mL)”.
